From ChEMBL document CHEMBL5375961, “Design, Synthesis, and Biological Evaluation of Trisubstituted Piperazine Derivatives as Noncovalent Severe Acute Respiratory Syndrome Coronavirus 2 Main Protease Inhibitors with Improved Antiviral Activity and Favorable Druggability” (J Med Chem, 2023)

System: SARS-CoV-2
Experiment: Antiviral activity against SARS-CoV-2 Delta (B.1.617.2) infected in African green monkey Vero E6 cells assessed as reduction in viral replication treated for 1 hr followed by replacement with fresh medium containing compounds measured after 23 hrs in presence of CP-100356 by qRT-PCR analysis
Format: functional, organism-based
Settings: Severe acute respiratory syndrome coronavirus 2, Delta (B.1.617.2), Vero C1008

SMILES: CC(C)(C)[C@H](NC(=O)C(F)(F)F)C(=O)N1CC2(C[C@H]1C(=O)N[C@H](C#N)C[C@@H]1CCNC1=O)SCCS2
- EC50: 34 nM
